{
  "source": "patent US4157391A",
  "about": "“Cholesterol derivative-based medicaments acting on bio-protective mechanisms” (The Green Cross Corporation, priority 1977, dated 1979)",
  "key": {"PHA reaction": {"system": "PHA reaction", "assay": "PHA reaction 50% inhibition (PHA method by Cooperband et al.), immunoregulatory action in vitro", "format": "cell-based", "conditions": "read-out: PHA reaction 50% inhibition concentration", "source_text": "The PHA reaction 50% inhibition concentration of the compounds of the general formula (I) were examined by using the PHA method by Cooperband, S. R., et al., (The Journal of Immunology, 109, (1), 154, (1972)). For sake of comparison, the effect of IRA obtained according to the Occhino et al., method (The Journal of Immunology, 110, (3), 685, (1973)) was also shown."}, "[1]": {"system": "edemata grown on the mice legs (carrageenin)", "assay": "Antiphlogistic action: carrageenin edema of hind legs in mice", "format": "in vivo", "protocol": "20 Mice were divided into four groups of five and the mice of two test groups were administered intra-abdominally with 7-hydroxycholesterol and 7-ketocholesterol, respectively, with the dose of 200 mg/kg (physiologically isotonic 2.0 weight % aqueous solution), and 1 hour later, 0.05 ml of 1% carrageenin was administered as a phlogogenic agent subcutaneously to the hind legs of these mice.\nThe sizes of the edemata grown on the mice legs with time after carrageenin administration were measured by a volume differential meter and compared with those of the control mice to which an isotonic sodium chloride solution was administered.\nThe test results are shown in the graph of FIG. 1 of the accompanying drawing. In the graph, percent of growth of edema is given on the vertical Y-axis and time (hour) after carrageenin administration is given on the horizontal X-axis. The numerals for the respective curves represent the respective specimens used in the test, that is, 1 represents isotonic sodium chloride solution, 2 cholesterol, 3 7-ketocholesterol, and 4 7-hydroxycholesterol."}, "rats": {"system": "rats", "assay": "Acute toxicity test in rats", "format": "in vivo", "conditions": "intra-abdominal, 500, 1,000, 1,500 and 2,000 mg/kg, 5-day observation", "protocol": "An acute toxicity test of 7-hydroxycholesterol and 7-ketocholesterol was conducted on one group of rats (5 rats) with average body weight of about 200 gr. Each compound was suspended in a physiological solution of sodium chloride and made into a uniform suspension by a supersonic treatment, and then such suspension was administered intro-abdominally to each rat at the doses of 500 mg/kg, 1,000 mg/kg, 1,500 mg/kg and 2,000 mg/kg, respectively."}},
  "data": [
    {"smiles": "CC(C)CCC[C@@H](C)[C@H]1CC[C@H]2[C@@H]3C(O)C=C4C[C@@H](O)CC[C@]4(C)[C@H]3CC[C@]12C", "note": "(stereo partly shown) [7-hydroxycholesterol]", "values": [
      {"measurement": "IC50", "setting": "PHA reaction", "result": 5, "unit": "µg/mL"},
      {"measurement": "growth of edema", "setting": "[1]; 200 mg/kg intra-abdominally, five hours after carrageenin, control 82% in four hours", "result": "about 40%"},
      {"measurement": "death in acute toxicity test", "setting": "rats", "result": "No death"}
    ]},
    {"smiles": "CC(C)CCC[C@@H](C)[C@H]1CC[C@H]2[C@@H]3C(=O)C=C4C[C@@H](O)CC[C@]4(C)[C@H]3CC[C@]12C", "note": "[7-ketocholesterol]", "values": [
      {"measurement": "IC50", "setting": "PHA reaction", "result": 8, "unit": "µg/mL"},
      {"measurement": "growth of edema", "setting": "[1]; 200 mg/kg intra-abdominally, time not separately stated, control 82% in four hours", "result": "about 50%"},
      {"measurement": "death in acute toxicity test", "setting": "rats", "result": "No death"}
    ]},
    {"smiles": "CC(C)CCC[C@@H](C)[C@H]1CC[C@H]2[C@@H]3CC=C4C[C@@H](O)CC[C@]4(C)[C@H]3CC[C@]12C", "note": "[cholesterol]", "values": [
      {"measurement": "growth of edema", "setting": "[1]; four hours after carrageenin, cholesterol group (reference data), control 82%", "result": 70, "unit": "%"}
    ]}
  ]
}
